The CheMixHub viscosity set

Test: xn = mol fraction of the nth substance listed

NC=O + OCCO
viscosity [mPa·s]
Conditions	293.15 K	298.15 K	303.15 K	308.15 K	313.15 K	318.15 K
100 kPa, x1 = 0.1003	16.54	13.52	11.1	–	–	–
100 kPa, x1 = 0.2002	13.55	10.99	9.12	–	–	–
100 kPa, x1 = 0.299	11.22	8.878	7.232	–	–	–
100 kPa, x1 = 0.3975	9.55	7.61	6.151	–	–	–
100 kPa, x1 = 0.5027	7.99	6.541	5.273	–	–	–
100 kPa, x1 = 0.6014	6.85	5.592	4.603	–	–	–
100 kPa, x1 = 0.7027	5.827	4.71	3.99	–	–	–
100 kPa, x1 = 0.7999	4.96	4.15	3.647	–	–	–
100 kPa, x1 = 0.9014	4.413	3.817	3.402	–	–	–
101 kPa, x1 = 0.0612	17.53	14.25	11.64	9.225	7.801	6.584
101 kPa, x1 = 0.1204	15.35	12.26	9.875	7.684	6.506	5.505
101 kPa, x1 = 0.1859	13.53	10.7	8.482	6.488	5.384	4.554
101 kPa, x1 = 0.3302	10.35	8.058	6.301	4.664	3.8	3.156
101 kPa, x1 = 0.4517	8.301	6.445	5.002	3.702	3.055	2.554
101 kPa, x1 = 0.5643	6.692	5.306	4.172	3.206	2.716	2.379
101 kPa, x1 = 0.6596	5.526	4.526	3.708	2.947	2.556	2.322
101 kPa, x1 = 0.7454	4.685	4.003	3.403	2.808	2.476	2.292
101 kPa, x1 = 0.8195	4.186	3.721	3.234	2.753	2.45	2.271
101 kPa, x1 = 0.8883	3.908	3.526	3.126	2.727	2.438	2.251
101 kPa, x1 = 0.9491	3.714	3.39	3.025	2.692	2.425	2.236
101 kPa, x2 = 0.0761	–	–	–	2.392	–	–
101 kPa, x2 = 0.1538	–	–	–	2.439	–	–
101 kPa, x2 = 0.2311	–	–	–	2.487	–	–
101 kPa, x2 = 0.3245	–	–	–	2.636	–	–
101 kPa, x2 = 0.4125	–	–	–	2.996	–	–
101 kPa, x2 = 0.5236	–	–	–	4.026	–	–
101 kPa, x2 = 0.6337	–	–	–	5.164	–	–
101 kPa, x2 = 0.7468	–	–	–	6.594	–	–
101 kPa, x2 = 0.8596	–	–	–	8.193	–	–
